≈ marks a conversion by molar mass, not a printed value. Peptide text beside a SMILES is read from it.
Key:
[1] = test system: S. aureus CVCC 546; experiment: Mouse thigh infection model, CFU in thigh muscle; assay type: in vivo, mouse (female CD-1); settings: 10 mg/kg single i.p. dose 2 h post-infection, read 24 h post-infection, n = 6
Protocol: (§1) Mouse experiments were carried out at Gene Engineering Laboratory, Feed Research Institute of Chinese Academy of Agricultural Sciences (CAAS) and complied with institutional animal care and use policies and procedures (AEC-CAAS-20090609). All animal studies were performed with female CD-1 mice, 6∼7 weeks old.
(§2) S. aureus CVCC 546 in the exponential phase were resuspended in MHB and adjusted to 1 × 10^8 CFU/mL, a 0.1-mL inoculum was injected into the right thighs of mice. At 2 h post-infection, mice (n = 6) were administered intraperitoneally (i.p.) with peptides at 2.5, 5, or 10 mg/kg. Mice raised without any treatment, or treated with PBS, 10 mg/kg DLP4, or vancomycin were used as the blank and negative and positive controls, respectively. At 24 h post-infection, peripheral blood was collected and serum was separated for cytokine levels analysis by using enzyme-linked immunosorbent assay (ELISA) kit (R&D systems, United States). Mice were euthanized, the right thighs were aseptically removed and processed for colonies counting ([Ling et al., 2015]).

[2] = test system: S. aureus CVCC 546; experiment: Potassium ion (K+) leakage; assay type: cell-based, Staphylococcus aureus; settings: 1 × MIC, treated for 150 min, 0.9% saline, 10^8 CFU/mL, ICP, n = 3
Protocol: To further investigate the effects of peptides on membrane integrity, K^+ leakage determination was carried out as previously described ([Miao et al., 2016]). Briefly, S. aureus CVCC 546 cells were centrifuged, washed, and resuspended in 0.9% sterile saline. The cell suspension (10^8 CFU/mL) was treated with peptides at 1 × MIC. Cells untreated and treated with DLP4 or nisin were used as blank and positive controls. At time intervals of 30, 60, 90, 120, and 150 min, the suspensions were centrifuged at 12000 rpm for 5 min. The supernatants were then subjected to measurement by Agilent inductively coupled plasma optical emission (ICP-OES).

[3] = test system: S. aureus CVCC 546; experiment: Post-antibiotic effect (PAE); assay type: cell-based, Staphylococcus aureus; settings: 2 × MIC, 2 h exposure, mean ± SD, n = 3
Protocol: The PAE was determined by exposing S. aureus cells to antimicrobial agent at 1×, 2×, or 4 × MIC for 2 h. After drug removal by dilution, the bacterial culture was incubated at 37°C and 250 rpm. An aliquot of samples (50 μL) were taken for CFU counts at different time intervals until bacterial cultures became turbid. Bacteria treated with DLP4 or vancomycin and left without treatment were used as the positive and blank controls, respectively. The PAE was calculated using the following formula: PAE = T − C, where T is the time for the CFU counts to increase by 10-fold above the count observed immediately after drug removal, and C is the corresponding time for the untreated control ([Oh et al., 2019]).

[4] = test system: S. epidermidis ATCC 12228; experiment: MIC, microtiter plate assay; assay type: cell-based, Staphylococcus epidermidis; settings: 37°C, 16∼20 h, triplicate
Protocol: (§3) The minimal inhibitory concentration (MIC) was evaluated by a microtiter plate assay ([Wiegand et al., 2008]). Serial 2-fold dilutions of test peptides were placed into a 96-well plate containing identical bacterial inoculum and incubated at 37°C for 16∼20 h. Vancomycin was used as antibiotic control. The MIC value was defined as the lowest peptide concentration where no visible growth occurred. All tests were made in triplicate.

[5] = test system: S. suis CVCC 3928; experiment: MIC, microtiter plate assay; assay type: cell-based, Streptococcus suis; settings: 37°C, 16∼20 h, triplicate
Protocol: as §3

[6] = test system: TNF-α; experiment: Mouse thigh infection model, serum cytokine ELISA; assay type: in vivo, mouse (female CD-1); settings: 10 mg/kg i.p., serum 24 h post-infection
Protocol: as §1, §2

[7] = test system: IL-6; experiment: Mouse thigh infection model, serum cytokine ELISA; assay type: in vivo, mouse (female CD-1); settings: 10 mg/kg i.p., serum 24 h post-infection
Protocol: as §1, §2

[8] = test system: IL-10; experiment: Mouse thigh infection model, serum cytokine ELISA; assay type: in vivo, mouse (female CD-1); settings: 10 mg/kg i.p., serum 24 h post-infection
Protocol: as §1, §2

[9] = test system: E. coli K88; experiment: MIC, microtiter plate assay; assay type: cell-based, Escherichia coli; settings: 37°C, 16∼20 h, triplicate
Protocol: as §3

[10] = test system: S. aureus ATCC 43300; assay type: cell-based, Staphylococcus aureus; settings: microtiter, serial 2-fold dilutions, 37°C, 16∼20 h, triplicate; – = no activity
In short: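 2-fold peptide dilution series, identical inoculum, 37°C, 16∼20 h. MIC = lowest conc. without visible growth. Vancomycin control; triplicate.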

[11] = test system: Escherichia coli ATCC 25922; experiment: MIC, microtiter plate assay; assay type: cell-based; settings: 37°C, 16∼20 h, triplicate
Protocol: as §3

[12] = test system: Streptococcus pneumoniae CVCC 2350; experiment: MIC, microtiter plate assay; assay type: cell-based; settings: 37°C, 16∼20 h, triplicate
Protocol: as §3

[13] = test system: Salmonella pullorum CVCC 533; experiment: MIC, microtiter plate assay; assay type: cell-based; settings: 37°C, 16∼20 h, triplicate
Protocol: as §3

[14] = test system: S. enteritidis CVCC 3377; experiment: MIC, microtiter plate assay; assay type: cell-based, Salmonella enteritidis; settings: 37°C, 16∼20 h, triplicate
Protocol: as §3

[15] = test system: S. aureus CVCC 546; experiment: Membrane permeabilization, PI flow cytometry; assay type: cell-based, Staphylococcus aureus; settings: 0.5 h, 10^8 CFU/mL, n = 3
Protocol: The effects of peptides on membrane permeabilization were measured by flow cytometry ([Zhu et al., 2018]). […] Cells untreated and treated with 2 × MIC DLP4 or vancomycin were used as blank and positive controls. The fluorescence of the dye was monitored at an excitation wavelength of 488 nm and an emission wavelength of 635 nm.

[16] = test system: mouse erythrocytes; experiment: Hemolytic activity; assay type: cell-based; settings: 128 μg/mL, 8% (v/v) mouse erythrocytes in PBS, 1 h, 37°C, absorbance 576 nm, n = 3
Protocol: Hemolytic activity of peptides was evaluated with fresh mouse erythrocytes. Briefly, fresh mouse erythrocytes were collected, washed, and resuspended to a concentration of 8% (v/v) in PBS. Then, an aliquot of erythrocyte solution was added to 96-well plates containing an equal volume of peptide solution (1∼256 μg/mL) and was incubated for 1 h at 37°C. The erythrocyte suspension treated with 0.1% Triton X-100 and left untreated was employed as positive and negative controls, respectively. After centrifugation at 2000 rpm for 5 min, the supernatant was measured using a microplate reader at 576 nm. The percent hemolysis was calculated using the following formula: Percenthemolysis = [(A − A0)/(A100 − A0)] × 100%, where A, A100, and A0 represent the absorbance of the peptide sample and positive and negative controls, respectively.

For `CC[C@H](C)[C@@H]1NC(=O)[C@@H]2CSSC[C@@H](C(=O)N[C@@H](CCCNC(=N)N)C(=O)N[C@@H](CCCCN)C(=O)O)NC(=O)[C@H](CC(N)=O)NC(=O)[C@@H]3CSSC[C@H](NC(=O)[C@H](C)NC(=O)[C@H](C)NC(=O)[C@H](Cc4c[nH]cn4)NC(=O)CNC(=O)[C@H](C(C)C)NC(=O)[C@H](CCCCN)NC(=O)[C@H](Cc4ccccc4)NC(=O)[C@@H]4CCCN4C(=O)[C@H](CO)NC(=O)[C@H](CC(C)C)NC(=O)[C@H](CC(C)C)NC(=O)[C@H](CC(=O)O)NC(=O)[C@@H](NC(=O)[C@@H](NC(=O)[C@H](C)N)[C@@H](C)O)CSSC[C@H](NC(=O)[C@H](Cc4c[nH]c5ccccc45)NC(=O)CNC(=O)CNC(=O)[C@H](CCCNC(=N)N)NC(=O)[C@H](CCCCN)NC(=O)CNC(=O)[C@H](CCCNC(=N)N)NC(=O)[C@H](C)NC1=O)C(=O)N[C@@H](CC(=O)O)C(=O)NCC(=O)N[C@@H](CCCNC(=N)N)C(=O)N[C@@H](C)C(=O)N[C@@H](C(C)C)C(=O)N3)C(=O)N[C@@H](C)C(=O)N[C@@H](C)C(=O)N[C@@H](Cc1c[nH]cn1)C(=O)N2` [ID13] (HELM PEPTIDE1{A.T.C.D.L.L.S.P.F.K.V.G.H.A.A.C.A.A.H.C.I.A.R.G.K.R.G.G.W.C.D.G.R.A.V.C.N.C.R.K}$PEPTIDE1,PEPTIDE1,3:R3-30:R3|PEPTIDE1,PEPTIDE1,16:R3-36:R3|PEPTIDE1,PEPTIDE1,20:R3-38:R3$$$V2.0; N-terminus and C-terminus assumed), the “reduction of S. aureus in infected thigh muscles” value [1] was 1.8 log10 (CFU/g), the “level of released K+” value [2] was 0.81 mg/L and the PAE [3] was 12.78 ± 0.28 h. For the same molecule, the MIC [4] was 1.91 µM (≈ 8.02 µg/mL), the MIC [5] was 0.95 µM (≈ 3.99 µg/mL) and the “downregulation of serum level of TNF-α” value [6] was 1123.30 pg/mL. For the same molecule, the “downregulation of serum level of IL-6” value [7] was 750.02 pg/mL, the “downregulation of serum level of IL-10” value [8] was 37.66 pg/mL and the MIC [9] was greater than 30.50 µM. The “A1 (MIC against S. aureus ATCC 43300)” value [10] was 4 µg/mL, the MIC [11] was greater than 30.50 µM and the MIC [12] was 0.95 µM (≈ 3.99 µg/mL). The MIC [13] was greater than 30.50 µM, the MIC [14] was greater than 30.50 µM and the “percentage of PI-positive cells” value ([15]; 1 × MIC) was 47.2%. For the same molecule, the “percentage of PI-positive cells” value ([15]; 2 × MIC) was 48.2%, the “percentage of PI-positive cells” value ([15]; 4 × MIC) was 52.8% and the hemolysis [16] was 0.38%.

Reference: article PMC7291858, “An Enhanced Variant Designed From DLP4 Cationic Peptide Against Staphylococcus aureus CVCC 546” (Frontiers in Microbiology, 2020)
